Columns and labels:
RAW264.7 [1] = test: Cytotoxicity against mouse RAW264.7 cells at IC50 by MTT assay; assay type: cell-based
RAW264.7 [2] = test: Antiinflammatory activity in mouse RAW264.7 cells assessed as inhibition of LPS-induced nitric oxide production after 24 hrs by Griess method; assay type: functional, cell-based; conditions: RAW264.7, 24 h

Row | SMILES | IC50 (RAW264.7 [2]) [µM] | Activity (RAW264.7 [1])
1 | C=C[C@]1(C)CC[C@@]2(C)c3cc(O)c(O)c(C)c3CC[C@@H]2C1 | 3.33 | Non-toxic
2 | C=C[C@]1(C)CC[C@]2(C)[C@H](CC[C@H]3[C@@](C)(CO)C(=O)C=C[C@@]32O)C1 | 7.32 | Non-toxic
3 | C=C[C@]1(C)CC[C@@]2(C)C3=CC(=O)[C@@H]4C[C@]4(C)[C@]3(O)CC[C@@H]2C1 | 2.76 | Non-toxic
4 | C=C[C@]1(C)CC[C@]2(C)[C@H](CC[C@H]3[C@@](C)(CO)C(=O)C=C[C@]32O)C1 | 19 | Non-toxic
5 | C=C[C@]1(C)CC[C@@]2(C)c3cc(O)c(O)c(C)c3C[C@H](O)[C@@H]2C1 | 2.44 | Non-toxic
6 | C=C[C@]1(C)CC[C@@]2(CO)C3=CC(=O)O[C@@H]3C(C)(C)CC[C@@H]2C1 | 7.5 | Non-toxic
7 | C=C[C@]1(C)CC[C@@]2(C)C3=CC(=O)O[C@@H]3C(C)(C)C[C@H](O)[C@@H]2C1 | 6.49 | Non-toxic
8 | C=C[C@]1(C)CC[C@@]2(CO)C3=CC[C@H](O)C(C)(C)[C@@H]3CC[C@@H]2C1 | 5.57 | Non-toxic
9 | COc1ccc2c(c1)c(CC(=O)O)c(C)n2C(=O)c1ccc(Cl)cc1 [INDOMETHACIN] | 16.7 | 

Further lines, with some results ahead:

Row | IC50 (RAW264.7 [2]) [µM] | SMILES | Activity (RAW264.7 [1])
10 | 24.3 | C=C[C@]1(C)CC[C@@]2(C)C3=C[C@@H](O)[C@H](O)C(C)(C)[C@@H]3CC[C@@H]2C1 | Non-toxic
11 | 12.5 | C=C[C@]1(C)CC[C@@]2(C)C3=C[C@H](O)[C@H](O)C(C)(C)[C@@H]3CC[C@@H]2C1 | Non-toxic
12 | 1.02 | C=C[C@]1(C)CC[C@@]2(C)C3=CC(=O)[C@H](O)[C@](C)(CO)[C@@H]3CC[C@@H]2C1 | Non-toxic
13 | 7.29 | C=C[C@]1(C)CC[C@@]2(C)C3=CC[C@H](O)[C@](C)(CO)[C@@H]3CC[C@@H]2C1 | Non-toxic
14 | 5.51 | C=C[C@]1(C)CC[C@@]2(C)C3=CC[C@H](O)C(C)(C)[C@@H]3C[C@H](O)[C@@H]2C1 | Non-toxic

Source: ChEMBL document CHEMBL3232912, “Anti-inflammatory diterpenoids from the roots of Euphorbia ebracteolata” (J Nat Prod, 2014)
